Read-outs that look alike come from different tables or passages of the source.
Columns and labels:
5HT2B receptors = biological target: T1, 5HT2B receptors (Homo sapiens, UniProt P41595); assay: Human 5-HT2B functional high throughput screening assay in CHO-K1 cells (calcium flux); format: cell-based; conditions: for EC50: CHO-K1 cells, calcium flux
T1 construct: expressed in transfected cells; host or cells: CHO-K1 cells
Procedure, shortened: (§1)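 Frozen CHO-K1 cells overexpressing the receptor were plated, serum-starved overnight, then loaded with Ca4 dye plus 2.5 mM probenecid for 60 min at room temperature. FLIPR fluorescence (ex 480/em 530 nm, 25 °C) after compound addition was normalized to serotonin; EC50 and Emax came from 4-parameter logistic fits.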

5HT2C receptors = biological target: T2, 5HT2C receptors (Homo sapiens, UniProt P28335); assay: Human 5-HT2C functional high throughput screening assay in CHO-K1 cells (calcium flux); format: cell-based; design: expressed in transfected cells; host or cells: CHO-K1 cells; conditions: for EC50: CHO-K1 cells, calcium flux; for Emax: CHO-K1, 5-HT2C, maximum functional response as percentage relative to the effect of serotonin
T2 sequence (P28335 33-458): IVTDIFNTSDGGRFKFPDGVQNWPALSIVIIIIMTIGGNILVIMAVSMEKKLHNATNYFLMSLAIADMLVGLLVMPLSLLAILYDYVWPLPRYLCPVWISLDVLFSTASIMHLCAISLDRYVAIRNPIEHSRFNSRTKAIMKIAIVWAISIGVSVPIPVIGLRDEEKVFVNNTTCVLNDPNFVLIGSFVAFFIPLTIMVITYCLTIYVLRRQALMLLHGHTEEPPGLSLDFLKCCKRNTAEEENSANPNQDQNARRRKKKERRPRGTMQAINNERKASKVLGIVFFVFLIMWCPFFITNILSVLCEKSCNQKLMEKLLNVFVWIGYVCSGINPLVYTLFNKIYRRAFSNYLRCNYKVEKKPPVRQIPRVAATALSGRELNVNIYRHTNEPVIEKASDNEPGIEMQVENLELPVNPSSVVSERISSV
Procedure, shortened: as §1

[1] = 5-HT2B agonist activity, read-out: EC50
[2] = 5-HT2B, maximum functional response as percentage relative to the effect of serotonin
[3] = 5-HT2C agonist activity, read-out: EC50
[4] = CHO-K1, 5-HT2B, maximum functional response as percentage relative to the effect of serotonin, read-out: Emax

T1 sequence (P41595 whole entry): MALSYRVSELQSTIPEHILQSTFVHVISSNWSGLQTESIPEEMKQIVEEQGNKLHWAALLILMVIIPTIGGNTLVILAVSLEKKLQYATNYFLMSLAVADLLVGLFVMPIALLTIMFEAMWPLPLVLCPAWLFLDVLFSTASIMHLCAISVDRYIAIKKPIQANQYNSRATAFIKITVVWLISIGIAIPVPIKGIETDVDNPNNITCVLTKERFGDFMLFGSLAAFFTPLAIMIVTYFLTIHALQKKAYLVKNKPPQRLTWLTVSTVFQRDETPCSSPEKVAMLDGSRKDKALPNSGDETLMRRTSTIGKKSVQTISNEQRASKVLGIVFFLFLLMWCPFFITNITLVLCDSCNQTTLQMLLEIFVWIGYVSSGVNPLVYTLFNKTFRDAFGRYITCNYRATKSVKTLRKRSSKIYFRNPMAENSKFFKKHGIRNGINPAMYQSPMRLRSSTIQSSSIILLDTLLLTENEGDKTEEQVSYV

Compound	EC50 (5HT2B receptors; [1]) [nM]	Emax (5HT2B receptors; [2])	EC50 (5HT2C receptors; [3]) [nM]	Emax (5HT2C receptors; read-out: Emax) [%]	EC50 (5HT2B receptors; EC50, 5-HT2B agonist activity) [nM]	Emax (5HT2C receptors) [%]	EC50 (5HT2C receptors; EC50, 5-HT2C agonist activity) [nM]	Emax (5HT2B receptors; CHO-K1) [%]	Emax (5HT2B receptors; [4]) [%]
O=C1NC[C@@H]2CN(Cc3ccccc3)C[C@H]2c2cc3ccccc3cc21 (relative stereo) [Example 256, Trans-2-benzyl-1,2,3,3a,4,5-hexahydronaphtho[2,3-c]pyrrolo[3,4-e]azepin-6(12bH)-one]	> 10000	inactive	100	90					
O=C1NC[C@@H]2CNC[C@H]2c2ccc(-c3ccsc3Cl)cc21 (relative stereo) [Example 385, Trans-8-(2-chloro-3-thienyl)-2,3,3a,4,5,10b-hexahydropyrrolo[3,4-d][2]benzazepin-6(1H)-one]	> 10000	inactive	0.3	95					
O=C1NC[C@H]2CNC[C@@H]2c2ccc(-c3ccc(F)cc3)cc21 [Example 220, (3aR,10bS)-8-(4-Fluorophenyl)-1,2,3,3a,4,5-hexahydrobenzo[e]pyrrolo[3,4-c]azepin-6(10bH)-one]	> 10000	inactive	< 0.1	> 120					
Cc1cccc(-c2ccc3c(c2)C(=O)NC[C@@H]2CN(C)C[C@@H]32)c1 (relative stereo) [Example 81, Trans-2-methyl-8-m-tolyl-1,2,3,3a,4,5-hexahydrobenzo[e]pyrrolo[3,4-c]azepin-6(10bH)-one]	> 10000	inactive	1.7	> 120					
C[C@H](O)c1cccc(-c2ccc3c(c2)C(=O)NC[C@H]2CN(C)C[C@H]32)c1 [Example 248, (3aS,10bS)-8-(3-((S)-1-Hydroxyethyl)phenyl)-2-methyl-1,2,3,3a,4,5-hexahydrobenzo[e]pyrrolo[3,4-c]azepin-6(10bH)-one]	> 10000	inactive	2	100					
O=C1NC[C@@H]2CNC[C@H]2c2cc3c(cc21)CCCC3 (relative stereo) [Example 258, Trans-1,2,3,3a,4,5,8,9,10,11-decahydronaphtho[2,3-c]pyrrolo[3,4-e]azepin-6(12bH)-one]		inactive			> 10000	100	10		
Fc1ccc(F)c2c1OCC[C@H]1CNC[C@H]21 (relative stereo) [Example 289, Trans-7,10-difluoro-2,3,3a,4,5,10b-hexahydro-1H-[1]benzoxepino[4,5-c]pyrrole]					100	90	7	95	
c1cncc(-c2cccc3c2OCC[C@H]2CNC[C@H]32)c1 (relative stereo) [Example 368, Trans-7-(pyridin-3-yl)-2,3,3a,4,5,10b-hexahydro-1H-[1]benzoxepino[4,5-c]pyrrole]					1000	90	10	20	
COC(=O)c1cccc2c1NCC[C@@H]1CNC[C@@H]21 (relative stereo) [Example 402, Methyl trans-1,2,3,3a,4,5,6,10b-octahydropyrrolo[3,4-d][1]benzazepine-7-carboxylate]					200	100	30	75	
CN1C[C@@H]2CNC(=O)c3cc(F)cc(F)c3[C@H]2C1 [Example 162, (3aS,10bS)-8,10-Difluoro-2-methyl-1,2,3,3a,4,5-hexahydrobenzo[e]pyrrolo[3,4-c]azepin-6(10bH)-one]					100	> 120	8	40	
Fc1cc(F)c2c(c1)[C@H]1CNC[C@@H]1CCO2 (relative stereo) [Example 283, Trans-7,9-difluoro-2,3,3a,4,5,10b-hexahydro-1H-[1]benzoxepino[4,5-c]pyrrole]					60	80	800	50	
CN1C[C@@H]2CNC[C@H]2c2ccc(F)cc2C1=O (relative stereo) [Example 224, Trans-8-fluoro-5-methyl-1,2,3,3a,4,5-hexahydrobenzo[c]pyrrolo[3,4-e]azepin-6(10bH)-one]					6000	> 120		45	
COc1ccccc1S(=O)(=O)N1Cc2cccnc2[C@@H]2CNC[C@H]2C1 (relative stereo) [Example 354, Trans-6-[(2-methoxyphenyl)sulfonyl]-5,6,7,7a,8,9,10,10a-octahydropyrido[3,2-c]pyrrolo[3,4-e]azepine]	200		300	80					95
CN1C[C@@H]2CNC(=O)c3cc(OCc4cccc(F)c4F)ccc3[C@H]2C1 [Example 212, (3aS,10bS)-8-(2,3-Difluorobenzyloxy)-2-methyl-1,2,3,3a,4,5-hexahydrobenzo[e]pyrrolo[3,4-c]azepin-6(10bH)-one]	> 10000	inactive	0.9	> 120					
CN1C[C@H]2CNC(=O)c3cc(-c4ccc5c(c4)OCC5)ccc3[C@@H]2C1 (relative stereo) [Example 324, Trans-8-(2,3-dihydro-1-benzofuran-6-yl)-2-methyl-2,3,3a,4,5,10b-hexahydropyrrolo[3,4-d][2]benzazepin-6(1H)-one]	> 10000	inactive	3	85					
COc1ccc(-c2ccc3c(c2)C(=O)NC[C@@H]2CN(C)C[C@@H]32)cc1C (relative stereo) [Example 315, Trans-8-(4-methoxy-3-methylphenyl)-2-methyl-2,3,3a,4,5,10b-hexahydropyrrolo[3,4-d][2]benzazepin-6(1H)-one]	> 10000	inactive	30	90					
CN1C[C@H]2CNC(=O)c3cc(-c4cccc(S(C)(=O)=O)c4)ccc3[C@@H]2C1 (relative stereo) [Example 84, Trans-2-methyl-8-(3-(methylsulfonyl)phenyl)-1,2,3,3a,4,5-hexahydrobenzo[e]pyrrolo[3,4-c]azepin-6(10bH)-one]	> 10000	inactive		> 120					
c1cnc2c(c1)C1CNCC1CCO2 (mixture of isomers) [Example 260, 2,3,3a,4,5,10b-Hexahydro-1H-pyrrolo[3′,4′:4,5]oxepino[2,3-b]pyridine]	3000		1000			> 120		45	
CC(=O)c1cccc(-c2ccc3c(c2)C(=O)NC[C@@H]2CN(C)C[C@@H]32)c1 (relative stereo) [Example 237, Trans-8-(3-acetylphenyl)-2-methyl-1,2,3,3a,4,5-hexahydrobenzo[c]pyrrolo[3,4-e]azepin-6(10bH)-one]	> 10000	inactive	3	> 120					
c1ccc(-c2ccc3c(c2)[C@H]2CNC[C@@H]2CCO3)cc1 (relative stereo) [Example 215, Trans-9-phenyl-2,3,3a,4,5,10b-hexahydro-1H-[1]benzoxepino[4,5-c]pyrrole]	5000		600	> 120					15
O=S(=O)(c1ccc(C(F)(F)F)cc1)N1Cc2cccnc2[C@@H]2CNC[C@H]2C1 (relative stereo) [Example 347, Trans-6-{[4-(trifluoromethyl)phenyl]sulfonyl}-5,6,7,7a,8,9,10,10a-octahydropyrido[3,2-c]pyrrolo[3,4-e]azepine]	> 10000	inactive	90	90					
CC(C)CCOc1ccc2c(c1)C(=O)NC[C@@H]1CN(C)C[C@@H]21 (relative stereo) [Example 171, Trans-8-(isopentyloxy)-2-methyl-1,2,3,3a,4,5-hexahydrobenzo[e]pyrrolo[3,4-c]azepin-6(10bH)-one]		inactive			> 10000	> 120	30		
CN1C[C@H]2CN(C)C(=O)c3cc(-c4cccc(CCO)c4)ccc3[C@@H]2C1 (relative stereo) [Example 192, Trans-8-(3-(2-hydroxyethyl)phenyl)-2,5-dimethyl-1,2,3,3a,4,5-hexahydrobenzo[e]pyrrolo[3,4-c]azepin-6(10bH)-one]	> 10000	inactive	8	120					
O=C1NC[C@@H]2CNC[C@H]2c2sccc21 (relative stereo) [Example 104, Trans-6,6a,7,8,9,9a-hexahydropyrrolo[3,4-e]thieno[3,2-c]azepin-4(5H)-one]	> 10000	inactive	900			> 120			

Reference: patent US8846951B2 (AbbVie Inc., priority 2009, dated 2014)
